Reference: ChEMBL document CHEMBL3739333, “Nature of the charged head group dictates the anticancer potential of lithocholic acid-tamoxifen conjugates for breast cancer therapy” (Medchemcomm, 2015)
Calls of active or inactive are those of the source. No cut-off for these calls is given here.

Experiments:
MDA-MB-231 [1] = assay: Cytotoxicity against human ER negative MDA-MB-231 cells after 48 hrs by MTT assay; assay type: functional, cell-based; settings: MDA-MB-231, 48 h
MDA-MB-468 [2] = assay: Cytotoxicity against human ER negative MDA-MB-468 cells after 48 hrs by MTT assay; assay type: functional, cell-based; settings: MDA-MB-468, 48 h
T47D [3] = assay: Cytotoxicity against human T47D cells expressing ER after 48 hrs by MTT assay; assay type: functional, cell-based
[4] = Binding affinity to model membranes using Laurdan-based hydration assessed as changes in generalized polarization after 6 hrs
Lipid bilayer [5] = assay: Binding affinity to DPPC membranes assessed as changes in membrane fluidity of liposomes by measuring fluorescence anisotropy; settings: Liposome; TDE = time-dependent effect
Lipid bilayer [6] = assay: Binding affinity to DPPC membranes assessed as lowering of phase transition temperature
MDA-MB-231 [7] = assay: Cell cycle arrest in human ER negative MDA-MB-231 cells assessed as accumulation of sub-G0 phase after 48 hrs by FACS analysis; assay type: functional, cell-based
MCF7 [8] = assay: Cell cycle arrest in human MCF7 cells expressing ER assessed as accumulation of sub-G0 phase after 48 hrs by FACS analysis; assay type: functional, cell-based
MDA-MB-231 [9] = assay: Cell cycle arrest in human ER negative MDA-MB-231 cells assessed as accumulation of sub-G0 phase at 20 uM after 48 hrs by FACS analysis relative to control; assay type: functional
MCF7 [10] = assay: Cell cycle arrest in human MCF7 cells expressing ER assessed as accumulation of sub-G0 phase at 20 uM after 48 hrs by FACS analysis relative to control; assay type: functional
MDA-MB-231 [11] = assay: Induction of apoptosis in human ER negative MDA-MB-231 cells assessed as change in mitochondrial membrane potential at 10 to 20 uM after 48 hrs using DiOC6 dye based FACS analysis; assay type: functional, cell-based
MCF7 [12] = assay: Induction of apoptosis in human MCF7 cells expressing ER assessed as change in mitochondrial membrane potential at 10 to 20 uM after 48 hrs using DiOC6 dye based FACS analysis; assay type: functional, cell-based
MDA-MB-231 [13] = assay: Induction of apoptosis in human ER negative MDA-MB-231 cells assessed as increase of ROS level at 20 uM after 60 mins using DCFDA relative to control; assay type: functional
MDA-MB-231 [14] = assay: Drug uptake in human ER negative MDA-MB-231 cells; assay type: ADME, cell-based
MCF7 [15] = assay: Drug uptake in human MCF7 cells expressing ER; assay type: ADME, cell-based
MCF7 [16] = assay: Cytotoxicity against human MCF7 cells expressing ER after 48 hrs by MTT assay; assay type: functional, cell-based; settings: MCF7, 48 h
[17] = Retention time of the compound by HPLC analysis; assay type: physicochemical
MDA-MB-231 [18] = assay: Ratio of tamoxifen IC50 to compound IC50 for human ER negative MDA-MB-231 cells after 48 hrs by MTT assay; assay type: functional
MDA-MB-468 [19] = assay: Ratio of tamoxifen IC50 to compound IC50 for human ER negative MDA-MB-468 cells after 48 hrs by MTT assay; assay type: functional
MCF7 [20] = assay: Decrease in active-caspase-8 level in human MCF7 cells expressing ER at 10 uM after 48 hrs by Western blot analysis; assay type: functional, cell-based
MCF7 [21] = assay: Induction of apoptosis in human MCF7 cells expressing ER assessed as increase of ROS level at 20 uM after 60 mins using DCFDA relative to control; assay type: functional, cell-based
MDA-MB-231 [22] = assay: Induction of apoptosis in human ER negative MDA-MB-231 cells assessed as increase of Bax protein expression at 10 uM after 48 hrs by Western blot analysis; assay type: functional, cell-based
MDA-MB-231 [23] = assay: Induction of apoptosis in human ER negative MDA-MB-231 cells assessed as decrease of Bcl-2 protein expression at 10 uM after 48 hrs by Western blot analysis; assay type: functional, cell-based
MDA-MB-231 [24] = assay: Induction of apoptosis in human ER negative MDA-MB-231 cells assessed as effect of Bcl-xL protein expression at 10 uM after 48 hrs by Western blot analysis; assay type: functional, cell-based
MDA-MB-231 [25] = assay: Induction of apoptosis in human ER negative MDA-MB-231 cells assessed as increase of cleaved caspase 6 level at 10 uM after 48 hrs by Western blot analysis; assay type: functional, cell-based
MDA-MB-231 [26] = assay: Induction of apoptosis in human ER negative MDA-MB-231 cells assessed as increase of cleaved caspase 7 level at 10 uM after 48 hrs by Western blot analysis; assay type: functional, cell-based
MDA-MB-231 [27] = assay: Induction of apoptosis in human ER negative MDA-MB-231 cells assessed as increase of cleaved caspase 8 level at 10 uM after 48 hrs by Western blot analysis; assay type: functional, cell-based
MDA-MB-231 [28] = assay: Induction of apoptosis in human ER negative MDA-MB-231 cells assessed as effect on caspase 9 level at 10 uM after 48 hrs by Western blot analysis; assay type: functional, cell-based
MCF7 [29] = assay: Induction of apoptosis in human MCF7 cells expressing ER assessed as decrease of Bcl-2 protein expression at 10 uM after 48 hrs by Western blot analysis; assay type: functional, cell-based
MCF7 [30] = assay: Induction of apoptosis in human MCF7 cells expressing ER assessed as decrease of Bcl-xL protein expression at 10 uM after 48 hrs by Western blot analysis; assay type: functional, cell-based
MCF7 [31] = assay: Induction of apoptosis in human MCF7 cells expressing ER assessed as effect of Bax protein expression at 10 uM after 48 hrs by Western blot analysis; assay type: functional, cell-based
MCF7 [32] = assay: Induction of apoptosis in human MCF7 cells expressing ER assessed as effect on caspase 9 level at 10 uM after 48 hrs by Western blot analysis; assay type: functional, cell-based
MCF7 [33] = assay: Decrease in caspase-6 level in human MCF7 cells expressing ER at 10 uM after 48 hrs by Western blot analysis; assay type: functional, cell-based
MCF7 [34] = assay: Decrease in caspase-7 level in human MCF7 cells expressing ER at 10 uM after 48 hrs by Western blot analysis; assay type: functional, cell-based
T47D [35] = assay: Ratio of tamoxifen IC50 to compound IC50 for human ER positive T47D cells after 48 hrs by MTT assay; assay type: functional
MCF7 [36] = assay: Decrease in pro-caspase-8 level in human MCF7 cells expressing ER at 10 uM after 48 hrs by Western blot analysis; assay type: functional, cell-based

## CC/C(=C(\c1ccccc1)c1ccc(OCCN(C)C)cc1)c1ccccc1 [TAMOXIFEN]
MDA-MB-231 [1]
  IC50: 27 µM
MDA-MB-468 [2]
  IC50: 15 µM
T47D [3]
  IC50: 29.9 µM
[4]
  Activity: inactive
Lipid bilayer [5]
  Activity: tde
Lipid bilayer [6]
  Activity: inactive
MDA-MB-231 [7]
  Activity: Dose-dependent effect
MCF7 [8]
  Activity: Dose-dependent effect
MDA-MB-231 [9]
  fold change (FC): 3
MCF7 [10]
  fold change (FC): 2
MDA-MB-231 [11]
  Activity: inactive
MCF7 [12]
  Activity: inactive
MDA-MB-231 [13]
  fold change (FC): 1.8

## C[C@H](CCC(=O)NCc1cn(CCNc2ccc([N+](=O)[O-])c3nonc23)nn1)[C@H]1CC[C@H]2[C@@H]3CC[C@@H]4C[C@H](OC(=O)C[n+]5ccc(N(C)C)cc5)CC[C@]4(C)[C@H]3CC[C@]12C.[Cl-]
MDA-MB-231 [14]
  Drug uptake: Active
MCF7 [15]
  Drug uptake: Active

## CC/C(=C(\c1ccccc1)c1ccc(OCCN(C)C(=O)CC[C@@H](C)[C@H]2CC[C@H]3[C@@H]4CC[C@@H]5C[C@H](OC(=O)C[N+]6(C)CCOCC6)CC[C@]5(C)[C@H]4CC[C@]23C)cc1)c1ccccc1.[Cl-]
MDA-MB-231 [1]
  IC50: 48.2 µM
MCF7 [16]
  IC50: 43.6 µM
MDA-MB-468 [2]
  IC50: 15.3 µM
T47D [3]
  IC50: 45.2 µM
[17]
  Retention_time: 6.741 min

## CC/C(=C(\c1ccccc1)c1ccc(OCCN(C)C(=O)CC[C@@H](C)[C@H]2CC[C@H]3[C@@H]4CC[C@@H]5C[C@H](OC(=O)C[n+]6ccc(N(C)C)cc6)CC[C@]5(C)[C@H]4CC[C@]23C)cc1)c1ccccc1.[Cl-]
MDA-MB-231 [1]
  IC50: 6.5 µM
MCF7 [16]
  IC50: 12.7 µM
MDA-MB-468 [2]
  IC50: 3.13 µM
T47D [3]
  IC50: 7 µM
MDA-MB-231 [18]
  Ratio IC50: 4
MDA-MB-468 [19]
  Ratio IC50: 4
MCF7 [20]
  inhibition: Active
[17]
  Retention_time: 6.837 min
[4]
  Activity: Active
Lipid bilayer [5]
  Activity: tde
Lipid bilayer [6]
  Activity: Active
MDA-MB-231 [7]
  Activity: Dose-dependent effect
MCF7 [8]
  Activity: Dose-dependent effect
MDA-MB-231 [9]
  fold change (FC): 5
MCF7 [10]
  fold change (FC): 6
MDA-MB-231 [11]
  Activity: Active
MCF7 [12]
  Activity: inactive
MDA-MB-231 [13]
  fold change (FC): 2.3
MCF7 [21]
  Activity: inactive
MDA-MB-231 [22]
  Activity: Active
MDA-MB-231 [23]
  Activity: Active
MDA-MB-231 [24]
  Activity: inactive
MDA-MB-231 [25]
  Activity: Active
MDA-MB-231 [26]
  Activity: Active
MDA-MB-231 [27]
  Activity: Active
MDA-MB-231 [28]
  Activity: inactive
MCF7 [29]
  Activity: Active
MCF7 [30]
  Activity: Active
MCF7 [31]
  Activity: inactive
MCF7 [32]
  Activity: inactive
MCF7 [33]
  inhibition: Active
MCF7 [34]
  inhibition: Active
T47D [35]
  Ratio IC50: 4
MCF7 [36]
  inhibition: Active

## CC/C(=C(\c1ccccc1)c1ccc(OCCN(C)C(=O)CC[C@@H](C)[C@H]2CC[C@H]3[C@@H]4CC[C@@H]5C[C@H](OC(=O)C[N+]6(C)CCCCC6)CC[C@]5(C)[C@H]4CC[C@]23C)cc1)c1ccccc1.[Cl-]
MDA-MB-231 [1]
  IC50: 9.2 µM
MCF7 [16]
  IC50: 24.5 µM
MDA-MB-468 [2]
  IC50: 7.6 µM
T47D [3]
  IC50: 9.8 µM
[17]
  Retention_time: 6.767 min

## CC/C(=C(\c1ccccc1)c1ccc(OCCN(C)C(=O)CC[C@@H](C)[C@H]2CC[C@H]3[C@@H]4CC[C@@H]5C[C@H](OC(=O)C[N+]6(C)CCCC6)CC[C@]5(C)[C@H]4CC[C@]23C)cc1)c1ccccc1.[Cl-]
MDA-MB-231 [1]
  IC50: 12.6 µM
MCF7 [16]
  IC50: 24 µM
MDA-MB-468 [2]
  IC50: 6.61 µM
T47D [3]
  IC50: 8.4 µM
[17]
  Retention_time: 6.79 min

## CC/C(=C(\c1ccccc1)c1ccc(OCCN(C)c2ccc([N+](=O)[O-])c3nonc23)cc1)c1ccccc1
MDA-MB-231 [14]
  Drug uptake: Active
MCF7 [15]
  Drug uptake: Active

## CC/C(=C(\c1ccccc1)c1ccc(OCCN(C)C(=O)CC[C@@H](C)[C@H]2CC[C@H]3[C@@H]4CC[C@@H]5C[C@H](OC(=O)C[N+]67CCN(CC6)CC7)CC[C@]5(C)[C@H]4CC[C@]23C)cc1)c1ccccc1.[Cl-]
MDA-MB-231 [1]
  IC50: 20 µM
MCF7 [16]
  IC50: > 50 µM
MDA-MB-468 [2]
  IC50: 20.9 µM
T47D [3]
  IC50: 17.9 µM
[17]
  Retention_time: 6.735 min

## CC/C(=C(\c1ccccc1)c1ccc(OCCN(C)C(=O)CC[C@@H](C)[C@H]2CC[C@H]3[C@@H]4CC[C@@H]5C[C@H](OC(=O)C[N+](C)(C)C)CC[C@]5(C)[C@H]4CC[C@]23C)cc1)c1ccccc1.[Cl-]
MDA-MB-231 [1]
  IC50: 18.1 µM
MCF7 [16]
  IC50: 28.9 µM
MDA-MB-468 [2]
  IC50: 15 µM
T47D [3]
  IC50: 8.1 µM
[17]
  Retention_time: 6.676 min

## CC/C(=C(\c1ccccc1)c1ccc(OCCN(C)C(=O)CC[C@@H](C)[C@H]2CC[C@H]3[C@@H]4CC[C@@H]5C[C@H](OC(=O)C[n+]6ccccc6)CC[C@]5(C)[C@H]4CC[C@]23C)cc1)c1ccccc1.[Cl-]
MDA-MB-231 [1]
  IC50: 18 µM
MCF7 [16]
  IC50: > 50 µM
MDA-MB-468 [2]
  IC50: 13.6 µM
T47D [3]
  IC50: 17.4 µM
[17]
  Retention_time: 7.033 min

## C[C@H](CCC(=O)O)[C@H]1CC[C@H]2[C@@H]3CC[C@@H]4C[C@H](OC(=O)C[n+]5ccc(N(C)C)cc5)CC[C@]4(C)[C@H]3CC[C@]12C
MDA-MB-231 [1]
  IC50: 13.7 µM
MCF7 [16]
  IC50: 43.4 µM
MDA-MB-468 [2]
  IC50: 9.1 µM
T47D [3]
  IC50: 13.3 µM
[4]
  Activity: inactive
Lipid bilayer [5]
  Activity: tde
Lipid bilayer [6]
  Activity: Active
MDA-MB-231 [7]
  Activity: Dose-dependent effect
MCF7 [8]
  Activity: Dose-dependent effect
MCF7 [12]
  Activity: inactive

## CC/C(=C(\c1ccccc1)c1ccc(OCCN(C)C(=O)CC[C@@H](C)[C@H]2CC[C@H]3[C@@H]4CC[C@@H]5C[C@H](OC(=O)CN)CC[C@]5(C)[C@H]4CC[C@]23C)cc1)c1ccccc1
MDA-MB-231 [1]
  IC50: > 50 µM
MCF7 [16]
  IC50: > 50 µM
MDA-MB-468 [2]
  IC50: > 50 µM
T47D [3]
  IC50: > 50 µM
[4]
  Activity: Active
Lipid bilayer [5]
  Activity: tde
